Molecules are shown by their SMILES.

The nature of the data set: Compatibility of artesunate and ferroquine combined within one and the same tablet. The format is physicochemical. Particulars: color of artesunate goes from white to brown. The text has this:
However, artesunate and ferroquine are strongly incompatible if the two active ingredients are combined within one and the same tablet.

Turning to `C[C@H]1[C@H](OC(=O)CCC(=O)O)O[C@@H]2O[C@@]3(C)CC[C@H]4[C@H](C)CC[C@@H]1[C@@]24OO3` [artesunate, Artesunate], the “stability of artesunate when combined with ferroquine within the same tablet” value is given as “rapid increase in the level of artesunate degradation products”.

Source of the values: US20120237600A1, “MULTILAYER PHARMACEUTICAL COMPOSITION THAT CAN BE DISPERSED IN WATER AND WHICH CONTAINS A COMBINATION OF ANTIMALARIAL AGENTS” (SANOFI, priority 2009, published 2012).
